“Also recorded” adds a separate entry of the source.
Tests used:
mice [1] = assay: Forced Swim Test on mice; assay type: in vivo; conditions: PX 100 mg
dopaminergic neurons = conditions: cited from earlier work
[2] = Clinical Stroop Test study; assay type: in vivo; conditions: paraxanthine 200 mg; BHB 5 g; paraxanthine 200 mg with BHB 5 g; 6-week period; FIGS. 15A-15C
Description: The Stroop effect refers to the delay in reaction time between congruent and incongruent stimuli. […] When paired with paraxanthine, the combination provides a synergistic improvement in mental acuity.

healthy young adults [3] = assay: Vigilance Task Test; assay type: in vivo; conditions: 200 mg paraxanthine; 5 g BHB; 200 mg paraxanthine and 5 g BHB; baseline and 1-6 hours after supplementation; FIG. 6
Description: The Vigilance Task Test is another test routinely used in the field, and is used to evaluate a participants ability to sustain attention. The Vigilance Task Test is a sustained attention, reaction timed task test that measures the speed with which participants respond to a visual stimulus. The subjects respond to visual stimuli (e.g., a red dot) by pressing a key as soon as it appears on the computer screen. The light turns on at random, e.g., roughly every couple of seconds or so during the test. The speed of response is measured. Due to the random nature of the test, there is no learning effect. Mean response time is recorded. When running each such tests, subjects are given either paraxanthine+BHB, paraxanthine alone, BHB alone, or a placebo. The dosage amounts are 200 mg paraxanthine and 5 g of BHB, 200 mg of paraxanthine alone, 5 g of BHB alone, or a placebo. The testing is conducted under double blind, placebo controlled conditions. The subjects include 13 healthy young adults (10 male, 3 female), aged 24±5 years; height 170.0±11.8 cm; weight 72.9±19.3 kg.

[4] = target: cGMP-preferring phosphodiesterase (PDE9) (Homo sapiens, UniProt O76083); conditions: cited from earlier work
mice [5] = assay: Cook's Pole Climbing Test on mice; assay type: in vivo; conditions: PX 100 mg
healthy young adults [6] = assay: Sternberg Test; assay type: in vivo; conditions: 200 mg paraxanthine; 5 g BHB; 200 mg paraxanthine and 5 g BHB; letter length 2, 4, 6; FIGS. 9-11
Description: The Sternberg Test is a test routinely used in the field to evaluate working memory, and ability to make use of short-term memory. A lower reaction time means that participants can access their working memory faster. The Sternberg Task Test is a widely used paradigm for studying short term/working memory involving cognitive control processes. Participants are asked to remember a short series of letters or other characters and then the participants has to respond if the series of letters or characters is present in a larger series of letters or characters. Reaction time is measured when the remembered short series is both present or absent. Mean response time is recorded. When running each such tests, subjects are given either paraxanthine+BHB, paraxanthine alone, BHB alone, or a placebo. The dosage amounts are 200 mg paraxanthine and 5 g of BHB, 200 mg of paraxanthine alone, 5 g of BHB alone, or a placebo. The testing is conducted under double blind, placebo controlled conditions. The subjects include 13 healthy young adults (10 male, 3 female), aged 24±5 years; height 170.0±11.8 cm; weight 72.9±19.3 kg.

[7] = system: healthy trained male runners; assay: Vigilance Task Test before and after 10 km treadmill run; assay type: in vivo; conditions: 200 mg paraxanthine, 200 mg caffeine, 5 g BHB, and combinations, FIG. 13
Description: The Vigilance Task Test is another test routinely used in the field, and is used to evaluate a participants ability to sustain attention. The Vigilance Task Test is a sustained attention, reaction timed task test that measures the speed with which participants respond to a visual stimulus. The subjects respond to visual stimuli (e.g., a red dot) by pressing a key as soon as it appears on the computer screen. The light turns on at random, e.g., roughly every couple of seconds or so during the test. The speed of response is measured. Due to the random nature of the test, there is no learning effect. Mean response time is recorded. […] The testing is conducted under double blind, placebo controlled conditions. The subjects include 12 healthy trained male runners, aged 26±5 years. Baseline cognition tests are administered (PRE), the given supplement is ingested, and after 60 minutes of rest, a pre-race cognition test (PRE-EX) is administered. A 10 km run on a treadmill is then performed, followed by a post-race cognition test (POST), The cognition tests include a Vigilance Task Test (measuring the ability to remain heedfully vigilant) and a Berg-Washington Card Sorting Task Test (measuring cognitive flexibility).

[8] = elevated doses; cited from earlier work
[9] = in vivo; cited from earlier work
adenosine A1 receptors = target: T1, adenosine A1 receptors (Homo sapiens, UniProt P30542); conditions: compared with caffeine; cited from earlier work
T1 sequence (P30542 1-326): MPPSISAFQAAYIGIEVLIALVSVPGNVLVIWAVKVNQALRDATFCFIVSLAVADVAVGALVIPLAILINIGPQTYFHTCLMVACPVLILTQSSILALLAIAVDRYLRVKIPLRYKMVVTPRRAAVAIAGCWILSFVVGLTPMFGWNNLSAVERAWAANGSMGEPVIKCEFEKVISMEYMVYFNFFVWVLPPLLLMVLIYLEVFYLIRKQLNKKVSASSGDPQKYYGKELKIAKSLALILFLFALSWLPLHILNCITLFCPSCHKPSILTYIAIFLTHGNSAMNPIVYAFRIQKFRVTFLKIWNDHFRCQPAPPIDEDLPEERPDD

[10] = metabolite of caffeine, cited from earlier work

Chain of cGMP-preferring phosphodiesterase (PDE9) (O76083 whole entry): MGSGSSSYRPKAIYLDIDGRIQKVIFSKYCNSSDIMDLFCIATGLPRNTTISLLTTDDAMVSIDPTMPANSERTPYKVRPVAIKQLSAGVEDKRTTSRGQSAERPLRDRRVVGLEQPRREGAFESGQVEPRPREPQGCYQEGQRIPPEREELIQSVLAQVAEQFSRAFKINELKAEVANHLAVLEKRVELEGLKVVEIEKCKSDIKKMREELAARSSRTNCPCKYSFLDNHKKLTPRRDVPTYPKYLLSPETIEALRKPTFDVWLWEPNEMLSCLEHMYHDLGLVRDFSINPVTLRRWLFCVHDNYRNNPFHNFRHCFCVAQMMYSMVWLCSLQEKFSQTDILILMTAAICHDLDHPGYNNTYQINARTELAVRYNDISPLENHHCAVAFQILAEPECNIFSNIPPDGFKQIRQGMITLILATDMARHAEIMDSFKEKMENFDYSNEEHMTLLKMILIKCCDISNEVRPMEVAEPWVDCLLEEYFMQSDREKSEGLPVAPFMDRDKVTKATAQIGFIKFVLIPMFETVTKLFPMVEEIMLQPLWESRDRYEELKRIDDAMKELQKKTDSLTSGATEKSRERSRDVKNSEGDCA

For `Cn1c(=O)[nH]c2ncn(C)c2c1=O` [paraxanthine, 1,7-dimethylxanthine], the “Duration of Immobility” value (mice [1]) is given as 5.85 min, the “Duration of mobility/active swimming” value (mice [1]) is given as 24.15 min and the “protection against neurodegeneration and the loss of synaptic function” value (dopaminergic neurons) is given as “strongly protective”. For the same compound, the “Stroop test number of correct answers” value [2] was “some improvement”, the “Stroop test reaction speed” value [2] was “some improvement” and the “Vigilance Task Test average response time” value (healthy young adults [3]) was “faster response times”. For the same compound, the “inhibition of PDE9” value [4] was “inhibits PDE9; also recorded: selective inhibitor”, the “No. of Climbing” value (mice [5]) was 2.75 and the “Sternberg Test mean response time” value (healthy young adults [6]) was “decreased mean response time”. For the same compound, the “Vigilance Task Test response times” value [7] was “some benefit”, the “hypothermia and reduced locomotor activity” value [8] was “no such problems are observed” and the wake promoting activity [9] was “stronger wake promoting activity as compared to caffeine”. The “binding potency for adenosine A1 receptors” value (adenosine A1 receptors) was “higher binding potencies”, the “share of the methylxanthine metabolic by-products” value ([10]; FIG. 2) was “about 84%” and the “share of caffeine ingested” value [10] was 70-72%.

Reference: patent US12144814B2, “Compositions containing paraxanthine and beta-hydroxybutyrate or precursor for increasing neurological and physiological performance” (priority 2023, dated 2024)
